Results from patent publication US20100331315A1, “RHODANINES AND RELATED HETEROCYCLES AS KINASE INHIBITORS” (priority 2009, published 2010).
Like-named read-outs stand apart in the source and are kept apart here.

Experiments:
MDAMB231 = assay: Alamar Blue cell proliferation assay, MDAMB231; format: cell-based; conditions: Homo sapiens, MDA-MB-231, MDAMB231, Table 1, read-out: AB: MDAMB231 IC50
Protocol: (§1) A representative cell-proliferation assay protocol using Alamar Blue dye (stored at 4° C., use 20 ul per well) is described hereafter.
(§2) a. Split and trypsinize cells.
(§3) b. Count cells using hemocytometer.
(§4) c. Plate 4,000-5,000 cells per well in 100 μl of medium and seed into a 96-well plate according to the following plate layout. Add cell culture medium only to wells B10 to B12. Wells B1 to B9 have cells but no compound added.
(§5) d. Add 100 μl of 2× drug dilution to each well in a concentration shown in the plate layout above. At the same time, add 100 μl of media into the control wells (wells B10 to B12). Total volume is 200 μl/well.
(§6) e. Incubate four (4) days at 37° C., 5% CO2 in a humidified incubator.
(§7) f. Add 20 μl Alamar Blue reagent to each well.
(§8) g. Incubate for four (4) hours at 37° C., 5% CO2 in a humidified incubator.
(§9) h. Record fluorescence at an excitation wavelength of 544 nm and emission wavelength of 590 nm using a microplate reader.
(§10) In the assays, cells are cultured with a test compound for approximately four days, the dye is then added to the cells and fluorescence of […] dye is detected after approximately four hours. Different types of cells can be utilized in the assays (e.g., HCT-116 human colorectal carcinoma cells, PC-3 human prostatic cancer cells and MiaPaca human pancreatic carcinoma cells).

MV-4-11 = assay: Alamar Blue cell proliferation assay, MV-4-11; format: cell-based; conditions: Homo sapiens, MV4-11, MV-4-11, Table 1, read-out: AB: MV-4-11 IC50
Protocol: as §1, §2, §3, §4, §5, §6, §7, §8, §9, §10

[1] = system: MiaPaca human pancreatic carcinoma cells; assay: Alamar Blue cell proliferation assay, MiaPaCa; format: cell-based; conditions: MIA PaCa-2, Table 1, read-out: AB: MiaPaCa IC50
Protocol: as §1, §2, §3, §4, §5, §6, §7, §8, §9, §10

recombinant PIM-1 = recombinant PIM-1 (Homo sapiens, UniProt P11309); assay: PIM-1 assay (33P-ATP filter plate); format: biochemical; conditions: read-out: PIM1: IC50
recombinant PIM-1, sequence (P11309 whole entry): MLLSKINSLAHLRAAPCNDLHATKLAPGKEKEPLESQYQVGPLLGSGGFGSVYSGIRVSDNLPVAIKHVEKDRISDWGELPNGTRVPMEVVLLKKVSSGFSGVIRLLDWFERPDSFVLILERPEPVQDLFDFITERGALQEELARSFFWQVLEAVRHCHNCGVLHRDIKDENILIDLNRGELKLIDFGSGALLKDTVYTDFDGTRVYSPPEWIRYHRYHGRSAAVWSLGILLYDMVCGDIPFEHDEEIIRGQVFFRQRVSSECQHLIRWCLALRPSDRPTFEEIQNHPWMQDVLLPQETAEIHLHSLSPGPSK
Protocol: The following procedure was used to assay the PIM-1 kinase activity of compounds of the invention. Other methods for assaying PIM-1 and other PIM kinases, as well as methods to assay for activity against the various kinases are known in the art.
In a final reaction volume of 50 ul, recombinant PIM-1 (1 ng) was incubated with 12 mM MOPS pH 7.0, 0.4 mM EDTA, glycerol 1%, brij 35 0.002%, 2-mercaptoethanol 0.02%, BSA 0.2 mg/ml, 100 uM KKRNRTLTK, 10 mM MgAcetate, 15 uM ATP, [γ-^33P-ATP] (specific activity approx. 500 cpm/pmol), DMSO 4% and test inhibitor compound at the required concentration. The reaction was initiated by the addition of the Magnesium ATP mixture. After 40 min incubation at 23° C., the reactions were quenched by the addition of 100 ul 0.75% Phosphoric acid, and the labeled peptide collected by filtration through a phosphocellulose filter plate. The plate was washed 4 times with 0.075% phosphoric acid (100 ul per well) and then, after the addition of scintillation fluid (20 ul per well), the counts were measured by a scintillation counter.

[2] = system: PC-3 human prostatic cancer cells; assay: Alamar Blue cell proliferation assay, PC3; format: cell-based; conditions: PC-3, PC3, Table 1, read-out: AB: PC3
Protocol: as §1, §2, §3, §4, §5, §6, §7, §8, §9, §10

K-562 = assay: Alamar Blue cell proliferation assay, K-562; format: cell-based; conditions: Homo sapiens, K562, K-562, Table 1, read-out: AB: K-562 IC50
Protocol: as §1, §2, §3, §4, §5, §6, §7, §8, §9, §10

recombinant human CK2 = biological target: T1, recombinant human CK2 (Homo sapiens, UniProt P68400); assay: CK2 assay (cell-free, 33P-ATP filter plate); format: biochemical
T1 construct: purchased Upstate
T1 sequence (P68400 whole entry): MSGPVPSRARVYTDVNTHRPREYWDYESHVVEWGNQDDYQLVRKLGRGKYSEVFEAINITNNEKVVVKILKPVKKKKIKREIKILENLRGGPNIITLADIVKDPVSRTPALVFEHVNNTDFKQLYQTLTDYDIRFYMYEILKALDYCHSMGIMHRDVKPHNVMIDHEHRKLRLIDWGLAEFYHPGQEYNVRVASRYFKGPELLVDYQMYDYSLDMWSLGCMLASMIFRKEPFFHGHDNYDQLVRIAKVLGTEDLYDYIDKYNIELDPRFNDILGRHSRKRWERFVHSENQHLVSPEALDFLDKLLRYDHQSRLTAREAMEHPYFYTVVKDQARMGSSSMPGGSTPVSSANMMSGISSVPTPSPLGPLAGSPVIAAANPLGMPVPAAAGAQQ
T1 sequence (P67870 whole entry partner): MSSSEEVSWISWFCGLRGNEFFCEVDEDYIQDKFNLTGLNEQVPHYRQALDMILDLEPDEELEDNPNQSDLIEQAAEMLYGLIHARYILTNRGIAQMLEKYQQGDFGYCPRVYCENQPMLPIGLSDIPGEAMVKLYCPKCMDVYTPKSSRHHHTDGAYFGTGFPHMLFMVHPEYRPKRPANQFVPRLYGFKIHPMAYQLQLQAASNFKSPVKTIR
Protocol: Modulatory activity of compounds described herein was assessed in vitro in cell-free CK2 assays by the following method.
Test compounds in aqueous solution were added at a volume of 10 microliters, to a reaction mixture comprising 10 microliters Assay Dilution Buffer (ADB; 20 mM MOPS, pH 7.2, 25 mM beta-glycerolphosphate, 5 mM EGTA, 1 mM sodium orthovanadate and 1 mM dithiothreitol), 10 microliters of substrate peptide (RRRDDDSDDD, dissolved in ADB at a concentration of 1 mM), 10 microliters of recombinant human CK2 (25 ng dissolved in ADB; Upstate). Reactions were initiated by the addition of 10 microliters of ATP Solution (90% 75 mM MgCl2, 75 micromolar ATP dissolved in ADB; 10% [γ-^33P]ATP (stock 1 mCi/100 μl; 3000 Ci/mmol (Perkin Elmer) and maintained for 10 minutes at 30 degrees C. The reactions were quenched with 100 microliters of 0.75% phosphoric acid, then transferred to and filtered through a phosphocellulose filter plate (Millipore). After washing each well 5 times with 0.75% phosphoric acid, the plate was dried under vacuum for 5 min and, following the addition of 15 ul of scintillation fluid to each well, the residual radioactivity was measured using a Wallac luminescence counter.

recombinant human PIM2 = recombinant human PIM2 (Homo sapiens, UniProt Q9P1W9); assay: PIM-2 assay (33P-ATP filter plate); format: biochemical
recombinant human PIM2, sequence (Q9P1W9 whole entry): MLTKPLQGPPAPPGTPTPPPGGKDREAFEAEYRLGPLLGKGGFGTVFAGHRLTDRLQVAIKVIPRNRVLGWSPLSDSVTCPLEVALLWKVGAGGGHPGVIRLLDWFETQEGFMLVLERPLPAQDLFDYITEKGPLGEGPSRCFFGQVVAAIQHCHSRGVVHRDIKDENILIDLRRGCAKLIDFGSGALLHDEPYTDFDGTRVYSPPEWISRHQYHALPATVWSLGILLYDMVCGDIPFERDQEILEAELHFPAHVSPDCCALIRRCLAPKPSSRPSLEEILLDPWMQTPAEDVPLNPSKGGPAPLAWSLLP
Protocol: PIM-2 Assay Method: Test compounds dissolved and diluted in DMSO (2 μl) were added to a reaction mixture comprising 10 μl of 5× Reaction Buffer (40 mM MOPS pH 7.0, 5 mM EDTA), 10 μl of recombinant human PIM2 solution (4 ng PIM-2 dissolved in dilution buffer (20 mM MOPS pH 7.0; EDTA 1 mM; 5% Glycerol; 0.01% Brij 35; […]; […] 2-mercaptoethanol; 1 mg/ml BSA)) and 8 ul of water. Reactions were initiated by the addition of 10 ul of ATP Solution (49% (15 mM MgCl2; 75 uM ATP) 1% ([γ-^33P]ATP: Stock 1 mCi/1000; 3000Ci/mmol (Perkin Elmer)) and 10 ul of substrate peptide solution (RSRSSYPAGT, dissolved in water at a concentration of 1 mM), Reactions were maintained for 10 min at 30° C. The reactions were quenched with 100 ul of 0.75% Phosphoric acid, then transferred to and filtered through a Phosphocellulose filter plate (Millipore, MSPH-N6B-50). After washing each well 4 times with 0.75% Phosphoric acid, scintillation fluid (20 uL) was added to each well and the residual radioactivity was measured using a Wallac luminescence counter.

Row | SMILES | IC50 (MDAMB231) | IC50 (MV-4-11) | IC50 [1] | IC50 (recombinant PIM-1; Table 1) | IC50 [2] | IC50 (K-562) | IC50 (recombinant human CK2; Table 1) | IC50 (recombinant human PIM2; Table 1) | IC50 (recombinant human PIM2; Table 5) | IC50 (recombinant PIM-1; Table 5) | IC50 (recombinant human CK2; Table 5)
1 | CN(C)NC(=O)c1cccc(-c2ccc(/C=C3\SC(=S)NC3=O)o2)c1 | > 10 µM | > 10 µM | > 10 µM | 36 nM | > 30 µM | > 10 µM | 94 nM |  |  |  | 
2 | O=C1NC(=S)S/C1=C\c1ccc(-c2cccc(C(=O)NNc3ccnc4cc(Cl)ccc34)c2)o1 | > 10 µM | > 10 µM | > 10 µM | 146 nM | > 30 µM | > 10 µM | 266 nM |  |  |  | 
3 | CCN(CC)CCNC(=O)c1ccc(-c2ccc(/C=C3\SC(=S)NC3=O)o2)cc1 | > 10 µM | > 10 µM | > 10 µM | 6 nM | > 30 µM | > 10 µM | 131 nM |  |  |  | 
4 | O=C1NC(=S)S/C1=C\c1ccc(-c2cccc(C(=O)N3CC[C@@H](F)C3)c2)o1 | > 10 µM | > 10 µM | > 10 µM | 40 nM | > 30 µM | > 10 µM | 26 nM |  |  |  | 
5 | O=C1NC(=S)S/C1=C\c1ccc(-c2cccc(C(=O)NCCN3CCCC3)c2)o1 | > 10 µM | > 10 µM | > 10 µM | 74 nM | > 30 µM | > 10 µM |  | 704 nM |  |  | 
6 | Cc1nccn1CCNC(=O)c1ccc(-c2ccc(/C=C3\SC(=S)NC3=O)o2)cc1 | > 10 µM | > 10 µM | > 10 µM | 14 nM | > 30 µM | > 10 µM | 226 nM |  |  |  | 
7 | O=C1NC(=S)S/C1=C\c1ccc(-c2ccc(C(=O)NCc3ccccn3)cc2)o1 | > 10 µM | 8.83 µM | > 10 µM | 286 nM | > 30 µM | > 10 µM | 40 nM |  |  |  | 
8 | CN1CCCN(c2cncc(-c3ccc(/C=C4\SC(=S)NC4=O)c(F)c3)n2)CC1 |  |  |  |  |  |  |  |  | 190 nM | 50 nM | 320 nM
9 | CN1CCCCC1CNC(=O)c1ccc(-c2ccc(/C=C3\SC(=S)NC3=O)o2)cc1 (stereo not shown) | > 10 µM | > 10 µM | > 10 µM | 37 nM | > 30 µM | > 10 µM | 471 nM |  |  |  | 
10 | CN1CCCN(c2cncc(-c3ccc(/C=C4/SC(=O)NC4=O)c(F)c3)n2)CC1 |  |  |  |  |  |  |  |  | > 2500 nM | 1180 nM | > 5000 nM
11 | O=C1NC(=S)S/C1=C\c1ccc(-c2cccc(C(=O)N3CCCNCC3)c2)o1 | > 10 µM | > 10 µM | > 10 µM | 9 nM | > 30 µM | > 10 µM | 412 nM |  |  |  | 
12 | O=C1NC(=S)S/C1=C\c1ccc(-c2cccc(C(=O)NN3CCN(CCO)CC3)c2)o1 | > 10 µM | > 10 µM | > 10 µM | 162 nM | > 30 µM | > 10 µM | 288 nM |  |  |  | 
